pIC50: −log10 of the molar value.
system: Influenza A/WSN/33 (H1N1) virus; experiment: In vitro anti-influenza virus assay (neutralization test), cytopathic effect on MDCK cells; type: cell-based; conditions: MDCK cells, 72 h, lower bound (10 nM), upper in μM, read-out: IC50 (concentration reducing virus-induced cytopathic effect by 50%)
Procedure: Anti-influenza activities of the coumarin compounds were evaluated by measuring the ability of a test compound to inhibit the cytopathic effect induced by an influenza virus on MDCK cells. The 96-well tissue culture plates were seeded with 200 μL of MDCK cells at a concentration of 1.1×10^5 cells/mL in DMEM with 10% fetal bovine serum (FBS). The plates were incubated for 24-30 h at 37° C. and were used at about 90% confluency. Influenza A/WSN/33 (H1N1) virus (100 TCID50) was added to the cells and incubated at 35° C. for 1 h. After adsorption, the infected cell plates were overlaid with 50 μL of DMEM plus 2% FBS and a test compound with different concentrations. The plate was incubated at 35° C. for 72 h. At the end of incubation, the plates were fixed by the addition of 100 μL of 4% formaldehyde for 1 h at room temperature. After the removal of formaldehyde, the plates were stained with 0.1% crystal violet for 15 min at room temperature. The plates were washed and dried, and the density of the well was measured at 570 nm. The concentration required for a test compound to reduce the virus-induced cytopathic effect (CPE) by 50% relative to the virus control was expressed as IC50.
Compounds 1 and 95 were also tested on various influenza virus strains. Amantadine or Relenza was also tested for comparison. IC50 is defined as the concentration required for a test compound to reduce the virus-induced cytopathic effect (CPE) by 50% relative to the virus control.

Row | Compound | IC50 [nM]
1 | Cc1c(C)c2ccc3oc(C(=O)c4ccccc4)c(-c4ccccc4)c3c2oc1=O [Compound 6] | 10 to 999
2 | CCc1cc(=O)oc2c1ccc1oc(C(=O)c3ccccc3)c(-c3ccccc3)c12 [Compound 9] | 10 to 999
3 | O=C(c1ccccc1)c1oc2ccc3c(C(F)(F)F)cc(=O)oc3c2c1-c1ccccc1 [Compound 11] | 10 to 999
4 | CCCc1cc(=O)oc2c1ccc1oc(C(=O)c3ccccc3)c(-c3ccccc3)c12 [Compound 14] | 10 to 999
5 | O=C(c1ccccc1)c1oc2ccc3c4c(c(=O)oc3c2c1-c1ccccc1)CCC4 [Compound 20] | 10 to 999
6 | Cc1cc(=O)oc2c1ccc1sc(C(=O)c3ccccc3)c(-c3ccccc3)c12 [Compound 26] | 10 to 999
7 | COc1ccccc1C(=O)c1oc2ccc3c(C)cc(=O)oc3c2c1-c1ccccc1 [Compound 30] | 10 to 999
8 | COc1cccc(C(=O)c2oc3ccc4c(C)cc(=O)oc4c3c2-c2ccccc2)c1 [Compound 31] | 10 to 999
9 | Cc1cc(=O)oc2c1ccc1oc(C(=O)c3cccc(C(F)(F)F)c3)c(-c3ccccc3)c12 [Compound 36] | 10 to 999
10 | Cc1cccc(C(=O)c2oc3ccc4c(C)cc(=O)oc4c3c2-c2ccccc2)c1 [Compound 40] | 10 to 999
11 | Cc1ccc(C(=O)c2oc3ccc4c(C)cc(=O)oc4c3c2-c2ccccc2)cc1 [Compound 41] | 10 to 999
12 | Cc1cc(=O)oc2c1ccc1oc(C(=O)c3ccccc3F)c(-c3ccccc3)c12 [Compound 44] | 10 to 999
13 | Cc1cc(=O)oc2c1ccc1oc(C(=O)c3ccc(F)cc3)c(-c3ccccc3)c12 [Compound 46] | 10 to 999
14 | Cc1cc(=O)oc2c1ccc1oc(C(=O)c3ccccc3Cl)c(-c3ccccc3)c12 [Compound 47] | 10 to 999
15 | Cc1cc(=O)oc2c1ccc1oc(C(=O)c3cccc(Cl)c3)c(-c3ccccc3)c12 [Compound 48] | 10 to 999
16 | Cc1cc(=O)oc2c1ccc1oc(C(=O)c3ccc4ccccc4c3)c(-c3ccccc3)c12 [Compound 54] | 10 to 999
17 | Cc1cc(=O)oc2c1ccc1oc(C(=O)c3ccc(F)cc3F)c(-c3ccccc3)c12 [Compound 59] | 10 to 999
18 | Cc1cc(=O)oc2c1ccc1oc(C(=O)c3ccc(F)c(F)c3)c(-c3ccccc3)c12 [Compound 60] | 10 to 999
19 | Cc1cc(=O)oc2c1ccc1oc(C(=O)c3cc(F)ccc3F)c(-c3ccccc3)c12 [Compound 61] | 10 to 999
20 | CCOc1cccc(C(=O)c2oc3ccc4c(C)cc(=O)oc4c3c2-c2ccccc2)c1 [Compound 68] | 10 to 999
21 | CCCOc1cccc(C(=O)c2oc3ccc4c(C)cc(=O)oc4c3c2-c2ccccc2)c1 [Compound 69] | 10 to 999
22 | CCCCOc1cccc(C(=O)c2oc3ccc4c(C)cc(=O)oc4c3c2-c2ccccc2)c1 [Compound 70] | 10 to 999

Row | Compound | IC50 [nM]
23 | CCCCCOc1cccc(C(=O)c2oc3ccc4c(C)cc(=O)oc4c3c2-c2ccccc2)c1 [Compound 71] | 10 to 999
24 | CCCCCCOc1cccc(C(=O)c2oc3ccc4c(C)cc(=O)oc4c3c2-c2ccccc2)c1 [Compound 72] | 10 to 999
25 | Cc1cc(=O)oc2c1ccc1oc(C(=O)c3cccc(OCCCCl)c3)c(-c3ccccc3)c12 [Compound 74] | 10 to 999
26 | Cc1cc(=O)oc2c1ccc1oc(C(=O)c3cccc(OCCCCCl)c3)c(-c3ccccc3)c12 [Compound 75] | 10 to 999
27 | C=CCOc1cccc(C(=O)c2oc3ccc4c(C)cc(=O)oc4c3c2-c2ccccc2)c1 [Compound 76] | 10 to 999
28 | C=CCCOc1cccc(C(=O)c2oc3ccc4c(C)cc(=O)oc4c3c2-c2ccccc2)c1 [Compound 77] | 10 to 999
29 | C=CCCCOc1cccc(C(=O)c2oc3ccc4c(C)cc(=O)oc4c3c2-c2ccccc2)c1 [Compound 78] | 10 to 999
30 | C=CCCCCOc1cccc(C(=O)c2oc3ccc4c(C)cc(=O)oc4c3c2-c2ccccc2)c1 [Compound 79] | 10 to 999
31 | Cc1cc(=O)oc2c1ccc1oc(C(=O)c3ccco3)c(-c3ccccc3)c12 [Compound 92] | 10 to 999
32 | Cc1cc(=O)oc2c1ccc1oc(C(=O)c3ccsc3)c(-c3ccccc3)c12 [Compound 96] | 10 to 999
33 | Cc1cc(=O)oc2c1ccc1oc(C(=O)c3ccc(Br)s3)c(-c3ccccc3)c12 [Compound 98] | 10 to 999
34 | Cc1ccsc1C(=O)c1oc2ccc3c(C)cc(=O)oc3c2c1-c1ccccc1 [Compound 100] | 10 to 999
35 | Cc1cc(=O)oc2c1ccc1oc(C(=O)c3nccs3)c(-c3ccccc3)c12 [Compound 107] | 10 to 999
36 | Cc1cc(=O)oc2c1ccc1oc(C(=O)c3ccccn3)c(-c3ccccc3)c12 [Compound 115] | 10 to 999
37 | Cc1cc(=O)oc2c1ccc1oc(C(=O)c3ccccc3)c(-c3ccccc3F)c12 [Compound 132] | 10 to 999
38 | Cc1cc(=O)oc2c1ccc1oc(C(=O)c3ccccc3)c(-c3ccccc3Cl)c12 [Compound 135] | 10 to 999
39 | Cc1cc(=O)oc2c1ccc1oc(C(=O)c3ccccc3)c(-c3ccc(Cl)cc3)c12 [Compound 137] | 10 to 999
40 | Cc1cc(=O)oc2c1ccc1oc(C(=O)c3ccccc3)c(-c3ccccc3Br)c12 [Compound 138] | 10 to 999
41 | Cc1cc(=O)oc2c1ccc1oc(C(=O)c3ccccc3)c(-c3cccc(Br)c3)c12 [Compound 139] | 10 to 999
42 | Cc1ccc(-c2c(C(=O)c3ccccc3)oc3ccc4c(C)cc(=O)oc4c23)cc1 [Compound 142] | 10 to 999
43 | Cc1cc(=O)oc2c1ccc1oc(C(=O)c3ccccc3)c(-c3cccc(C#N)c3)c12 [Compound 143] | 10 to 999
44 | Cc1cc(=O)oc2c1ccc1oc(C(=O)c3ccccc3)c(-c3cccc([N+](=O)[O-])c3)c12 [Compound 144] | 10 to 999

same assay, conditions: MDCK cells, 72 h, ranges given, read-out: IC50 (concentration reducing virus-induced cytopathic effect by 50%)

Row | Compound | pIC50
45 | O=C(c1ccccc1)c1oc2ccc3ccc(=O)oc3c2c1-c1ccccc1 [Compound 2] | 4.60 to 5.22
46 | Cc1cc2ccc3oc(C(=O)c4ccccc4)c(-c4ccccc4)c3c2oc1=O [Compound 3] | 5.23 to 6.00
47 | Cc1cc2oc(C(=O)c3ccccc3)c(-c3ccccc3)c2c2oc(=O)ccc12 [Compound 4] | 4.60 to 5.22
48 | O=Cc1cc(=O)oc2c1ccc1oc(C(=O)c3ccccc3)c(-c3ccccc3)c12 [Compound 10] | 5.23 to 6.00
49 | Cc1cc(=O)oc2c1cc(CC1CO1)c1oc(C(=O)c3ccccc3)c(-c3ccccc3)c12 (centres unmarked) [Compound 18] | 5.23 to 6.00
50 | O=C(c1ccccc1)c1oc2ccc3c4ccccc4c(=O)oc3c2c1-c1ccccc1 [Compound 22] | 4.60 to 5.22
51 | COc1ccc(C(=O)c2oc3ccc4c(C)cc(=O)oc4c3c2-c2ccccc2)cc1 [Compound 32] | 5.23 to 6.00
52 | Cc1cc(=O)oc2c1ccc1oc(C(=O)c3ccc(O)cc3)c(-c3ccccc3)c12 [Compound 34] | 5.23 to 6.00
53 | Cc1ccccc1C(=O)c1oc2ccc3c(C)cc(=O)oc3c2c1-c1ccccc1 [Compound 39] | 4.60 to 5.22
54 | Cc1cc(=O)oc2c1ccc1oc(C(=O)c3cccc(C#N)c3)c(-c3ccccc3)c12 [Compound 42] | 5.23 to 6.00
55 | Cc1cc(=O)oc2c1ccc1oc(C(=O)c3ccc(Cl)cc3)c(-c3ccccc3)c12 [Compound 49] | 4.60 to 5.22
56 | Cc1cc(=O)oc2c1ccc1oc(C(=O)c3ccc([N+](=O)[O-])cc3)c(-c3ccccc3)c12 [Compound 51] | 4.60 to 5.22
57 | COc1ccc(C(=O)c2oc3ccc4c(C)cc(=O)oc4c3c2-c2ccccc2)c(OC)c1 [Compound 56] | 4.60 to 5.22
58 | Cc1cc(=O)oc2c1ccc1oc(C(=O)c3ccc(Cl)c(Cl)c3)c(-c3ccccc3)c12 [Compound 58] | 5.23 to 6.00
59 | Cc1cc(=O)oc2c1ccc1oc(C(=O)c3cccc([N+](=O)[O-])c3)c(-c3ccccc3)c12 [Compound 66] | 5.23 to 6.00
60 | Cc1cc(=O)oc2c1ccc1oc(C(=O)c3cccc(N)c3)c(-c3ccccc3)c12 [Compound 67] | 5.23 to 6.00
61 | Cc1cc(=O)oc2c1ccc1oc(C(=O)c3cccc(OCCCl)c3)c(-c3ccccc3)c12 [Compound 73] | 5.23 to 6.00
62 | Cc1cc(=O)oc2c1ccc1oc(C(=O)c3cccc(OCCN4CCOCC4)c3)c(-c3ccccc3)c12 [Compound 80] | 5.23 to 6.00
63 | Cc1cc(=O)oc2c1ccc1oc(C(=O)c3cccc(OCCCN4CCOCC4)c3)c(-c3ccccc3)c12 [Compound 81] | 5.23 to 6.00
64 | Cc1cc(=O)oc2c1ccc1oc(C(=O)c3cccc(OCCCCN4CCOCC4)c3)c(-c3ccccc3)c12 [Compound 82] | 5.23 to 6.00
65 | Cc1cc(=O)oc2c1ccc1oc(C(=O)c3cccc(OCCCN4CCCCC4)c3)c(-c3ccccc3)c12 [Compound 84] | 4.60 to 5.22
66 | Cc1cc(=O)oc2c1ccc1oc(C(=O)c3cccc(OCCN(C)C)c3)c(-c3ccccc3)c12 [Compound 86] | 4.60 to 5.22
67 | Cc1cc(=O)oc2c1ccc1oc(C(=O)c3cccc(OCCCN(C)C)c3)c(-c3ccccc3)c12 [Compound 87] | 4.60 to 5.22
68 | Cc1ccc(C(=O)c2oc3ccc4c(C)cc(=O)oc4c3c2-c2ccccc2)o1 [Compound 94] | 4.60 to 5.22
69 | Cc1cc(=O)oc2c1ccc1oc(C(=O)c3cc(Cl)sc3Cl)c(-c3ccccc3)c12 [Compound 97] | 5.23 to 6.00
70 | Cc1cc(=O)oc2c1ccc1oc(C(=O)c3ccccc3)c(-c3cccc(F)c3)c12 [Compound 133] | 5.23 to 6.00
71 | Cc1cc(=O)oc2c1ccc1oc(C(=O)c3ccccc3)c(-c3cccc(Cl)c3)c12 [Compound 136] | 5.23 to 6.00

From patent publication US20090312406A1, “COUMARIN COMPOUNDS AND THEIR USE FOR TREATING VIRAL INFECTION” (priority 2008, published 2009)
